“Also recorded” adds a separate entry of the source.
Experiments:
cellular integrity = conditions: 50-100 mM, range of concentrations used in most in vitro experiments; cited from earlier work
[1] = tested on: rSeV-Luc (recombinant Sendai virus); assay: Inactivation assay with or without cyclodextrin, rSeV-Luc, luciferase activity in MK2 cells; format: cell-based
Experimental: MK2 (monkey) cells were grown at 37° C. in DMEM containing 5% of bovine serum albumin (BSA) until they reached 70% of confluence.
A recombinant Sendai virus was used, rSeV-Luc, which encodes the Photinus pyralis luciferase gene.
The nPLV preparations were diluted in PBS to the indicated concentrations. The diluted nPLVs were then mixed with the viruses, either alone (no cyclodextrin) or in combination with 0.5 mM (final concentration) of cyclodextrin, in a volume of 100 μl. The virus-nPLV mixtures were incubated at room temperature for 20 minutes with shaking. About 10^5 viral particles were used.
Following incubation, the mixtures were diluted to […] in DMEM without BSA and directly added onto cells. Infections were performed at 33° C. for one hour, and then infectious mixes were removed. Cells were washed once with DMEM without BSA, 10 ml of DMEM with 1% BSA were added and incubation was further performed at 37° C. for 36 hours. Experiment was done in duplicates.
MK2 cells were lysed and luciferase activity was determined using the Promega's Luciferase Assay System. Measurements were done with TD-20/20 luminometer (Turner Designs).

For `OC[C@H]1O[C@@H]2O[C@H]3[C@H](O)[C@@H](O)[C@@H](O[C@H]4[C@H](O)[C@@H](O)[C@@H](O[C@H]5[C@H](O)[C@@H](O)[C@@H](O[C@H]6[C@H](O)[C@@H](O)[C@@H](O[C@H]7[C@H](O)[C@@H](O)[C@@H](O[C@H]8[C@H](O)[C@@H](O)[C@@H](O[C@H]1[C@H](O)[C@H]2O)O[C@@H]8CO)O[C@@H]7CO)O[C@@H]6CO)O[C@@H]5CO)O[C@@H]4CO)O[C@@H]3CO` [β-cyclodextrin], the “effect on cellular integrity” value (cellular integrity) is given as “detrimental for cellular integrity and can induce cell death”, the “effect of β-cyclodextrin on the viral inactivation by nPLVs” value ([1]; 0.5 mM β-cyclodextrin with nPLVs composed of PCE with 0.1% mol of oleic acid (OA), nPLVs 0.02%, 0.05% and 0.1%, FIG. 2A) is given as “greatly enhances the viral inactivation; also recorded: strong synergistic effect” and the “concentration at which a direct effect of β-cyclodextrin alone on the viral particles is observed” value ([1]; in absence of nPLVs, FIG. 2B) is given as “higher than 5 mM”.
